Measured values taken from patent US20240150709A1, “COMPOSITIONS AND METHODS FOR MAKING PARASYMPATHETIC NEURONS” (University of Georgia Research Foundation, Inc., priority 2022, published 2024).

Assays:
hPSC-parasymNs = test: MEA neural activity of hPSC-parasymNs; assay type: cell-based, human; settings: for parasymN activity (relative MFR: mean firing rate): 1 μM vs control, day 30 hPSC-parasymNs
Experimental: (§2) For neural activity measurements, day 16 SCPs were plated on PO/LM/FN coated MEA plates (Axion BioSystems, BioCircuit or CytoView) at 100×10^3 cells/cm^2. […] Activity of differentiated parasymNs or CMs/SMCs on desired timepoints was measured using a MEA plate reader (Axion BioSystems, Maestro Pro) under the neural detection mode or cardiac detection mode, respectively, according to manufacturer's instruction.

hPSC-symNs = test: MEA neural activity of hPSC-symNs; assay type: cell-based, human; settings: 6-OHDA 100 μM, normalized to vehicle
Experimental: as §2

symN = test: 6-OHDA toxicity in symN (western blot, immunostaining, microscopy); assay type: cell-based, human
Experimental: Day 30 parasymNs and symNs on 6-well plates were prepared for sample collection. One well for each sample. Cells were washed by PBS and scraped after incubating with lysis buffer contains RIPA buffer (Sigma-Aldrich, R0278, 1×), PMSF protease inhibitor (Thermo Fisher Scientific, 36978, 1 mM) and PhosSTOP phosphatase inhibitor (Sigma-Aldrich, 4906845001). Protein concentration was measured using Bradford reagent (Bio-Rad, 5000006). Proteins were loaded as 20 μg/well and ran in 12% acrylamide gel. After the transfer, nitrocellulose membranes were blocked by 5% skim milk in TBST.
Membranes were incubated with primary antibodies overnight at 4° C. The next day, membranes were washed by PBST and incubated with secondary antibodies for one hour at room temperature. Images were taken using the iBright western blot imager (Invitrogen, FL1500).
(§1) Cells were fixed by 4% paraformaldehyde for 20 minutes and washed twice by PBS. Fixed cells were permeabilized by 0.3% Triton, 1% BSA and 3% goat or donkey serum in 1× PBS for 20 minutes, and incubated with primary antibodies overnight at 4° C. The next day, cells were washed and incubated with secondary antibodies for one hour at room temperature. Lastly, cells were washed and incubated with DAPI (Sigma, D9542, 1:1000) for 15 minutes at room temperature. Fluorescent images were taken using the Lionheart FX Automated Microscope.

parasymN = test: 6-OHDA toxicity in parasymN (microscopy); assay type: cell-based, human; settings: parasymN after 6-OHDA
Experimental: as §1

[1] = test system: 3T3-L1-derived white adipocytes; test: Lipolysis assay, white adipocytes with or without parasymN co-culture; assay type: cell-based, mouse
Experimental: To begin with, adipocyte culture medium was replaced with prewarmed lipolysis medium containing 0.5% BSA in DMEM, and cells were incubated for 4 hours at 37° C. After 4 hours, the lipolysis medium was replaced with fresh prewarmed lipolysis medium with test drugs and incubate for 90 minutes at 37° C. Then, the cell culture medium was collected for the assay or stored at −20° C. for long-term storage. Glycerol release in adipocyte cultured medium was measured using Adipolysis Assay Kit (Cayman, 10009381) according to manufacturer's instruction.
To test whether adipose functions can be regulated by parasymN activity, the lipolytic activity was compared.

[2] = test system: 3T3-L1-derived white adipocytes; test: Lipolysis assay, 3T3-L1-derived white adipocytes alone; assay type: cell-based, mouse; settings: 10 μM isoproterenol; differentiated adipocytes alone
Experimental: 3T3-L1 were seeded at 20×10^3 cells/cm^2 and fed until 80% confluency, which was defined as day 0. From day 0-3, cells were fed with the differentiation medium containing DMEM (Gibco, 11965118), 10% FBS, 0.5 mM IBMX (Cayman, 13347), 1 μM dexamethasone (Sigma, D2915), and 10 μg/ml insulin (Sigma, 19278). From day 3-6, cells were fed with post-differentiation medium containing DMEM, 10% FBS, and 10 μg/ml insulin. After day 6, cells were maintained in DMEM with 10% FBS until the desired timepoints. To begin with, adipocyte culture medium was replaced with prewarmed lipolysis medium containing 0.5% BSA in DMEM, and cells were incubated for 4 hours at 37° C. After 4 hours, the lipolysis medium was replaced with fresh prewarmed lipolysis medium with test drugs and incubate for 90 minutes at 37° C. […] Glycerol release in adipocyte cultured medium was measured using Adipolysis Assay Kit (Cayman, 10009381) according to manufacturer's instruction.

hPSC-CMs = settings: nicotine 1 μM; co-culture with hPSC-parasymNs; MEA
Experimental: CM differentiation. […] Briefly, 80-90% confluent H9 ESCs were replated at a 1 to 5 ratio on Matrigel (Corning, 1:20)-coated plates. When cells reached 90% confluency, medium was changed to CDBM base medium, that contains DMEM/F12 (Gibco, 11320033), 64 mg/L ascorbic acid, 13.6 μg/L sodium selenium (Sigma, S5261), 10 μg/ml transferrin (Sigma, T3309) and Chemically Defined Lipid Concentrate (Gibco, 11905031). 5 μM CHIR99021 was added to CDBM medium on day 0. 0.6 U/ml heparin ([sequence] Technologies, 07980) was added to CDBM medium on day 1, 5, 6. 0.6 U/ml heparin and 3 μM XAV were added to CDBM medium on day 2, 3, 4. After day 7, medium was changed to CM maintenance medium that contains CDBM base, 20 μg/ml insulin (Sigma, 1-034), and 2% FBS. CMs were replated on day 10 using accutase at 200×10^3 cells/cm^2 on Matrigel-coated plates. […]
as §2

mouse salivary cell = test: Calcium imaging of parasymN and mouse salivary cell coculture; assay type: cell-based; settings: coculture with parasymN; nicotine stimulation
From the text: FIG. 14B is a plot showing calcium imaging for salivary cell only upon nicotine stimulation.

[3] = test system: non-neural contaminating cell types; test: Purification of non-neural contaminating cells in parasymN differentiation; assay type: cell-based, human; settings: AraC added during the differentiation
Experimental: FIG. 13A illustrates that cell cycle inhibitor AraC was added during the differentiation.

angiotensin II (DRVYIHPF; Angiotensin-2; UniProt P01019 25-32, looked up) [Ang II, angiotensin II of the renin-angiotensin-aldosterone system]
parasymN activity (fold change of MFR) (hPSC-parasymNs; angiotensin II vs control (DMSO), MEA): decreased

NCCc1cc(O)c(O)cc1O [6-OHDA]
relative MFR over 12 hours after 6-OHDA (hPSC-symNs): displayed early hyperactivity | cell death markers PUMA/c-Cas3, western blot (symN; 12 hours after treating parasymN/symN with 6-OHDA): increased only in symN | cell death marker c-Cas3, percentage of cells by immunostaining (symN; 24 hours after treating parasymN/symN with 6-OHDA): increased only in symN | neural morphology by microscopy (symN; symN after 6-OHDA): damaged neural morphology | neural morphology by microscopy (parasymN): almost intact | relative MFR over 12 hours after 6-OHDA (hPSC-parasymNs; 6-OHDA 100 μM, hPSC-parasymNs, normalized to vehicle): remained unaffected

CC(C)NCC(O)c1ccc(O)c(O)c1 (stereo not shown) [isoproterenol]
lipolytic levels induced by isoproterenol (normalized glycerol release) ([1]; 10 μM isoproterenol, adipocytes co-cultured with parasymNs): counteracted | lipolytic activity (glycerol release) [2]: displayed lipolytic activity

CN1CCCC1c1cccnc1 (stereo not shown) [nicotine]
beating of hPSC-CMs (relative beats/min) (hPSC-CMs): decreased | parasymN activity (relative MFR: mean firing rate) (hPSC-parasymNs; MEA): further inducible | lipolysis levels (glycerol release) ([1]; 1 μM nicotine, adipocytes only or parasymN co-cultured): remained unchanged | salivary cell activity (calcium imaging) (mouse salivary cell): increased

CC(C[N+](C)(C)C)OC(N)=O (stereo not shown) [BeCh, bethanechol]
parasymN activity (relative MFR: mean firing rate) (hPSC-parasymNs; MEA): activated

CN1[C@@H]2CC[C@H]1C[C@@H](OC(=O)C(CO)c1ccccc1)C2 (stereo partly shown) [atropine]
parasymN activity (relative MFR: mean firing rate) (hPSC-parasymNs; MEA): inactivated

Nc1ccn([C@@H]2O[C@H](CO)[C@@H](O)[C@@H]2O)c(=O)n1 [AraC]
contaminating cells by immunostaining [3]: reduced
